# Target: leukotriene B4 receptors (Cavia porcellus, UniProt H0VYV8)
# Experiment: biochemical
# Type: binding, guinea-pig
# Conditions: Table XIX; guinea-pig spleen membranes, tritium-labelled LTB4; read-out: IC50 Binding (Cheng)
# Chain of leukotriene B4 receptors (H0VYV8 1-348): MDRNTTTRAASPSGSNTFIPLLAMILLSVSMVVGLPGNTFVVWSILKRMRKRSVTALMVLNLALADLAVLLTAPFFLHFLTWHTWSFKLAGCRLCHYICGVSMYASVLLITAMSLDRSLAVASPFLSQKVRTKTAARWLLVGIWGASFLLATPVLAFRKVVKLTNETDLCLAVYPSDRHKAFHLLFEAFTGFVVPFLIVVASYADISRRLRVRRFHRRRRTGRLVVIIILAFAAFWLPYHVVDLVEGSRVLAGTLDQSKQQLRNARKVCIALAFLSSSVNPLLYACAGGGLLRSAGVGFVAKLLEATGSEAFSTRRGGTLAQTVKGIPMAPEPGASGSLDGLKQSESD
row,Molecule,IC50 [nM]
1,O=C(O)COCCCOc1cc(-c2ccccc2)cc(-c2ccccc2)n1,100
2,O=C(O)CCCCCCCSc1nc(-c2ccccc2)c2ccccc2n1,9000
3,O=C(O)CCCCCCCSc1ncc(-c2ccccc2)c(-c2ccccc2)n1,3000
4,O=C(O)CCCCCCCOc1ccc(-c2ccccc2)c(-c2ccccc2)n1,10000
5,O=C(O)CCCCCCCOc1cccc(-c2ccccc2)n1,6000
6,6-[(6-cyclopropyl-5-phenyl-2-pyridyl)oxy]hexanoic acid,40
7,"CC(C)(CCCCOc1cc(-c2ccccc2)c2ccccc2n1)C(=O)O [2,2-dimethyl-6-[(4-phenyl-2-quinolyl)oxy]hexanoic acid]",150
8,"CC(C)(CCCCOc1cc(-c2ccccc2)c2cc(Cl)ccc2n1)C(=O)O [2,2-dimethyl-6-[(6-chloro-4-phenyl-2-quinolyl)oxy}hexanoic acid]",2500
9,"Cc1ccc2c(-c3ccccc3)cc(OCCCCC(C)(C)C(=O)O)nc2c1 [2,2-dimethyl-6-[(7-methyl-4-phenyl-2-quinolyl)oxy]hexanoic acid]",2000
10,"CC(C)(CCCCOc1cc(-c2cccs2)c2ccccc2n1)C(=O)O [2,2-dimethyl-6-{[4-(2-thienyl)-2-quinolyl]oxy}hexanoic acid]",200
11,"CC(C)(CCCCOc1cc(-c2ccc(Cl)c(Cl)c2)c2ccccc2n1)C(=O)O [2,2-dimethyl-6-{[4-(3,4-dichlorophenyl)-2-quinolyl]oxy}hexanoic acid]",3500
12,"CC(C)(CCCCOc1cc(-c2cccc(Cl)c2)c2ccccc2n1)C(=O)O [2,2-dimethyl-6-{[4-(3-chlorophenyl)-2-quinolyl]oxy}hexanoic acid]",1100
13,"COc1cccc(-c2cc(OCCCCC(C)(C)C(=O)O)nc3ccccc23)c1 [2,2-dimethyl-6-{[4-(3-methoxyphenyl)-2-quinolyl]oxy}hexanoic acid]",300
14,"Cc1cccc(-c2cc(OCCCCC(C)(C)C(=O)O)nc3ccccc23)c1 [2,2-dimethyl-6-{[4-(3-tolyl)-2-quinolyl]oxy}hexanoic acid]",3500
15,"CC(C)(CCCCOc1cc(-c2ccc(N)cc2)c2ccccc2n1)C(=O)O [2,2-dimethyl-6-{[4-(4-aminophenyl)-2-quinolyl]oxy}hexanoic acid]",40
16,"CC(C)(CCCCOc1cc(-c2ccc(Cl)cc2)c2ccccc2n1)C(=O)O [2,2-dimethyl-6-{[4-(4-chlorophenyl)-2-quinolyl]oxy}hexanoic acid]",15
17,"CC(C)(CCCCOc1cc(-c2ccc(Cl)cc2)cc(-c2ccccc2)n1)C(=O)O [2,2-dimethyl-6-{[4-(4-chlorophenyl)-6-phenyl-2-pyridyl]oxy}hexanoic acid]",100
18,"CN(C)c1ccc(-c2cc(OCCCCC(C)(C)C(=O)O)nc3ccccc23)cc1 [2,2-dimethyl-6-{[4-(4-dimethylaminophenyl)-2-quinolyl]oxy}hexanoic acid]",30
19,"CC(C)(CCCCOc1cc(-c2ccc(F)cc2)c2ccccc2n1)C(=O)O [2,2-dimethyl-6-{[4-(4-fluorophenyl-2-quinolyl]oxy}hexanoic acid]",150
20,"CC(C)(CCCCOc1cc(-c2ccc([N+](=O)[O-])cc2)c2ccccc2n1)C(=O)O [2,2-dimethyl-6-{[4-(4-nitrophenyl)-2-quinolyl]oxy}hexanoic acid]",150
21,"Cc1ccc(-c2cc(OCCCCC(C)(C)C(=O)O)nc3ccccc23)cc1 [2,2-dimethyl-6-{[4-(4-tolyl)-2-quinolyl]oxy}hexanoic acid]",30
22,"CC(C)(CCCCOc1cc(-c2ccc(C(F)(F)F)cc2)c2ccccc2n1)C(=O)O [2,2-dimethyl-6-{[4-(4-trifluoromethylphenyl)-2-quinolyl]oxy}hexanoic acid]",300

# Same assay, conditions: read-out: Binding (Cheng) % Inhibition at 10 μM
row,Molecule,inhibition at 10 µM [%]
1,O=C(CCCCCOc1cc(-c2ccccc2)c2ccccc2n1)N1CCCC1 [1-[6-(4-phenyl-2-quinolyloxy)hexanoyl]pyrrolidine],12
2,"CC(C)(CCCCSc1cc(-c2ccccc2)c2ccccc2n1)C(=O)O [2,2-dimethyl-6-[(4-phenyl-2-quinolyl)thio]hexanoic acid]",33
